From ChEMBL document CHEMBL5338766, “X-ray Crystal Structure-Guided Discovery of Novel Indole Analogues as Colchicine-Binding Site Tubulin Inhibitors with Immune-Potentiating and Antitumor Effects against Melanoma” (J Med Chem, 2023) come the findings set out here.

Data set [1] can be described thus: Antiproliferative activity against parental human A549S cells assessed as inhibition of cell proliferation incubated for 48 hrs by MTT assay. The class given is functional, cell-based.
Data set [2] is described as follows: Resistance index, ratio of IC50 for antiproliferative activity against paclitaxel resistant human A2780/Taxol cells to IC50 for antiproliferative activity against parental human A2780S cells. The class given is functional.
The nature of data set [3]: Resistance index, ratio of IC50 for antiproliferative activity against paclitaxel resistant human A549/TxR cells to IC50 for antiproliferative activity against parental human A549S cells. The class given is functional.
Data set [4] can be described thus: Clearance in Sprague-Dawley rat at 2 mg/kg, iv measured upto 12 hrs by UPLC-MS/ESI analysis. Particulars: in vivo. The class given is ADME, organism-based.
Data set [5] can be described thus: MRT (0 to t) in Sprague-Dawley rat at 20 mg/kg, po measured upto 12 hrs by UPLC-MS/ESI analysis. As to conditions: in vivo. Type of data set: ADME, organism-based.
In a further data set the test system is B16-F10. Briefly: Antitumor activity against mouse B16-F10 cells implanted in C57 mouse assessed as reduction in tumor volume at 2.5 mg/kg, ip administered every day for 14 days in the presence of NP19. Type of data set: functional, organism-based. Particulars: time 14.0 day.
Data set [6] in a line: Toxicity in C57 mouse implanted with mouse B16-F10 cells assessed as body weight loss at 5 mg/kg, ip administered every day for 14 days. The class given is organism-based. As to conditions: in vivo, 336 h, time 14 day.
Data set [7] in a line: Toxicity in C57 mouse implanted with mouse B16-F10 cells assessed as pathological changes in liver at 5 mg/kg, ip administered every day for 14 days by H&E staining based microscopic analysis. The class given is organism-based. Particulars: in vivo, 336 h, time 14 day.
A short description of data set [8]: Toxicity in C57 mouse implanted with mouse B16-F10 cells assessed as pathological changes in heart at 5 mg/kg, ip administered every day for 14 days by H&E staining based microscopic analysis. Type of data set: organism-based. As to conditions: in vivo, 336 h, time 14 day.
Data set [9] in a line: Toxicity in C57 mouse implanted with mouse B16-F10 cells assessed as pathological changes in kidney at 2.5 mg/kg, ip administered every day for 14 days in the presence of NP19 by H&E staining based microscopic analysis. The class given is organism-based. As to conditions: in vivo, 336 h, time 14 day.
A short description of data set [10]: Toxicity in C57 mouse implanted with mouse B16-F10 cells assessed as pathological changes in heart at 2.5 mg/kg, ip administered every day for 14 days in the presence of NP19 by H&E staining based microscopic analysis. The class given is organism-based. As to conditions: in vivo, 336 h, time 14 day.

The source made the active and inactive calls. No cut-off for these calls is given here.

Regarding `COc1cc(-c2nccc3[nH]c(-c4cccc5c4ccn5C)nc23)cc(OC)c1OC`, in data set [1], the IC50 is 8.5 nM. For the same compound, the “Ratio IC50” value came out at 3.2 in data set [2] and 1.8 in data set [3]. In addition, the clearance in data set [4] is 11.2 mL/min/kg. This compound also displayed an MRT last at 12 h in data set [5] of 3.06 h. The outcome in the data set with B16-F10 was Active. For the same compound, the Activity result in [6], in data set [7], in [8], in [9] and in [10] was “Non-Toxic” each time.
